Source: article PMC9610298, “Synthesis, Biological Evaluation and Machine Learning Prediction Model for Fluorinated Cinchona Alkaloid-Based Derivatives as Cholinesterase Inhibitors” (Pharmaceuticals, 2022)

Assays:
[1] = molecular target: T1, purified human BChE (Homo sapiens, UniProt P06276); details: earlier determined; cited from earlier work
[2] = molecular target: T1, purified human BChE; assay: Reversible inhibition of BChE, Ellman method, enzyme-inhibitor dissociation constants; format: biochemical; details: for SI, selective index Ki(AChE)/Ki(BChE): times higher preference for BChE over AChE
Experimental: (§1) As a source of BChE, a purified human BChE, and as AChE, a recombinant human AChE was used, both enzymes kindly provided by Dr. F. Nachon (Département de Toxicologie, Armed Forces Biomedical Research Institute, France). The concentrated stocks of enzymes (BChE: 5.6 µM; AChE: 0.20 µM) were diluted in a phosphate sodium buffer 0.1 M (pH 7.4) containing 0.1% BSA before starting the experiments.
(§2) Enzyme activities were measured spectrophotometrically by the Ellman method at […] using 0.30 mM DTNB as thiol reagent, ATCh as substrate and water in 0.1 M phosphate buffer, pH 7.4. For the inhibition measurements, the reaction mixture contained tested compounds instead of water. […] Measurements were done at 25 °C on a Tecan Infinite M200Pro plate reader (Austria). A detailed description of measurement protocol was described previously.
(§3) The reversible inhibition of BChE and AChE by tested compounds was measured by determining the decrease of enzyme activity towards ATCh in their presence. The activities of the enzymes were measured at different substrate concentrations ([S]; 0.050–0.50 mM) in the absence (v0) and presence (vi) of the given tested compounds concentration ([I]; 0.050–200 µM, depending on the compound) selected to inhibit the enzymes for 20–80%. At least three concentrations of inhibitors for each substrate concentration were used in at least three experiments. The apparent dissociation inhibition constant (Ki,app) was calculated applying the Hunter-Downs equation and linear regression analysis (1):(1) Ki,app=vi/v0−vi⋅I=KI+KI/KS⋅S where y-intercept determines the enzyme-inhibitor dissociation constants (K(I)), while x-intercept determines the enzyme-substrate dissociation constant, K(S). The determination of kinetic constants was carried out using the GraphPadPrism 6.0 program (GraphPad Software, San Diego, CA, USA).

[3] = molecular target: recombinant human AChE (Homo sapiens, UniProt P22303); assay: Reversible inhibition of AChE, Ellman method, enzyme-inhibitor dissociation constants; format: biochemical; details: ± standard error; ATCh substrate, 25 °C, pH 7.4
Experimental: as §1, §2, §3

[4] = ± standard error, ATCh substrate, 25 °C, pH 7.4

recombinant human AChE, sequence (P22303 32-614): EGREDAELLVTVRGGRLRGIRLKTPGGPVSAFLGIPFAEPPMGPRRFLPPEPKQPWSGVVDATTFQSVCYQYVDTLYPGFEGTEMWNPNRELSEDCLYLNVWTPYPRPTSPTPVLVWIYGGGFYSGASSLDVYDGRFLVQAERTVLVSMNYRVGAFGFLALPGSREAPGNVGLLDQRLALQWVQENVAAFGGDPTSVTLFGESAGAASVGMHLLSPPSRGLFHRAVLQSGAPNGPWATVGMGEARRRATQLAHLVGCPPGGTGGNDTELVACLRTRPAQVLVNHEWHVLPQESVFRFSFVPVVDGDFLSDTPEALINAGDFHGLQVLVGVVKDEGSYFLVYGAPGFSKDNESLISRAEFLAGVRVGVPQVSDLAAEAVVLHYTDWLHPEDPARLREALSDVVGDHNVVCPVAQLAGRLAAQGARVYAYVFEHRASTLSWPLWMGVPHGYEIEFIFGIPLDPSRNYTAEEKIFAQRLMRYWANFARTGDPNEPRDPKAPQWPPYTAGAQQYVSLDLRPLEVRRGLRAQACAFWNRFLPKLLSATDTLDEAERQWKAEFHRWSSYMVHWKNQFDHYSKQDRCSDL
T1 sequence (P06276 29-602): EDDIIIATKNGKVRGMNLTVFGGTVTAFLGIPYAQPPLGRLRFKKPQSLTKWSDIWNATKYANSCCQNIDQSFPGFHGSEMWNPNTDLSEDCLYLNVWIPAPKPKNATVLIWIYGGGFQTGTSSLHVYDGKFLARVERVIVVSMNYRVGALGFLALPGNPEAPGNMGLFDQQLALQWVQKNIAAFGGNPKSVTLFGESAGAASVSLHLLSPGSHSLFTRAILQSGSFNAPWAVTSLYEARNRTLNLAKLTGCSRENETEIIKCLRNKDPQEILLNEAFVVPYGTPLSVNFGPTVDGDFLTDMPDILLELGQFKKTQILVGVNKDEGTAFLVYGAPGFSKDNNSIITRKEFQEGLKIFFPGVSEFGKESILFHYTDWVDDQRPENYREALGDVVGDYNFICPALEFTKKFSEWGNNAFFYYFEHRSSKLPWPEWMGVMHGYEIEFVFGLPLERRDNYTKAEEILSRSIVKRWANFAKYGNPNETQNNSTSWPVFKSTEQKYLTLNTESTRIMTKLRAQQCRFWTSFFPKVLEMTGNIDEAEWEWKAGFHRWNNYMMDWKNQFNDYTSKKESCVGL

Compound	selectivity to BChE over AChE (times) [1]	SI, selective index Ki(AChE)/Ki(BChE) [2]	Ki [2, 4] [µM]	Ki [3] [µM]	Ki ([2]; stated in text as around) [µM]
C=CC1C[N+]2(Cc3ccc(Br)cc3)CCC1CC2C(O)c1ccnc2ccccc12 (centres unmarked) [N-para-bromobenzyl CD derivative]	510	–	–	–	–
CCC1C[N+]2(Cc3ccc(C(F)(F)F)cc3)CCC1C[C@H]2[C@H](O)c1ccnc2ccccc12 (some centres unmarked) [DHCD 4CF3]	–	5	3.2 ± 0.2	15 ± 1	–
C=CC1C[N+]2(Cc3cccc(C(F)(F)F)c3)CCC1C[C@@H]2[C@@H](O)c1ccnc2ccccc12 (some centres unmarked) [CN 3CF3]	–	13	4.4 ± 0.2	59 ± 2	–
C=CC1C[N+]2(Cc3ccc(F)cc3F)CCC1C[C@H]2[C@H](O)c1ccnc2ccccc12 (some centres unmarked) [CD 2,4F]	–	1.1	6.1 ± 0.5	6.4 ± 0.3	–
C=CC1C[N+]2(Cc3ccc(Br)cc3F)CCC1C[C@H]2[C@H](O)c1ccnc2ccccc12 (some centres unmarked) [CD 2F-4Br, N-(2-fluoro-4-bromobenzyl)cinchonidinium bromide]	–	10	0.68 ± 0.05	7.2 ± 0.4	–
CCC1CN2CCC1CC2C(O)c1ccnc2ccccc12 (centres unmarked) [DHCD, 10,11-dihydrocinchonidine]	–	11	19 ± 2	206 ± 6	–
C=CC1C[N+]2(Cc3ccc(C(F)(F)F)cc3)CCC1C[C@H]2[C@H](O)c1ccnc2ccccc12 (some centres unmarked) [CD 4CF3]	–	11	2 ± 0.1	21 ± 1	–
C=CC1C[N+]2(Cc3ccc(F)c(F)c3)CCC1C[C@H]2[C@H](O)c1ccnc2ccccc12 (some centres unmarked) [CD 3,4F]	–	10	1.3 ± 0.1	13 ± 1	–
C=CC1C[N+]2(Cc3cccc(F)c3)CCC1C[C@H]2[C@H](O)c1ccnc2ccccc12 (some centres unmarked) [CD 3F, N-(meta-fluorobenzyl)cinchonidinium bromide]	–	533	0.075 ± 0.005	40 ± 2	~0.076
CCC1C[N+]2(Cc3ccc(F)cc3)CCC1C[C@H]2[C@H](O)c1ccnc2ccccc12 (some centres unmarked) [DHCD 4F, N-(4-fluorobenzyl)-10,11-dihydrocinchonidinium bromide]	–	8	4.3 ± 0.2	31 ± 1	–
CCC1C[N+]2(Cc3ccccc3)CCC1C[C@@H]2[C@@H](O)c1ccnc2ccccc12 (some centres unmarked) [DHCN Bzl]	–	23	0.9 ± 0.04	21 ± 1	–
C=CC1C[N+]2(Cc3cccc(C(F)(F)F)c3)CCC1C[C@H]2[C@H](O)c1ccnc2ccccc12 (some centres unmarked) [CD 3CF3]	–	14	2.4 ± 0.1	34 ± 1	–
